From patent US11053204B2, “Pyrimidinyloxy benzene derivatives as herbicides” (FMC Corporation, priority 2015, dated 2021)

How the values were obtained:
Test in all cases: Test A preemergence, visual injury rating
Type in all cases: in vivo
[1] = test system: ragweed (common ragweed, Ambrosia elatior); settings: for pest or weed control at 125 g/ha / pest or weed control at 500 g/ha: Ambrosia artemisiifolia, pre-emergence, 240 h, read-out: Ragweed plant response rating
In short: (§1)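 Greenhouse pot test, loam/sand soil. Formulation: non-phytotoxic solvent mix plus surfactant. Pre: directed spray onto soil after sowing. Post: plants at 1–2 leaf, 2–10 cm. Rated visually vs untreated controls at ~10 d, 0 (no effect) to 100 (complete control).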

[2] = test system: Italian ryegrass (Lolium multiflorum); settings: for pest or weed control at 125 g/ha / pest or weed control at 500 g/ha: Lolium multiflorum, pre-emergence, 240 h, read-out: Ryegrass, Italian plant response rating
In short: as §1

[3] = test system: barnyardgrass (Echinochloa crus-galli); settings: for pest or weed control at 125 g/ha / pest or weed control at 500 g/ha: Echinochloa crus-galli, pre-emergence, 240 h, read-out: Barnyardgrass plant response rating
In short: as §1

[4] = test system: giant foxtail (Setaria faberii); settings: for pest or weed control at 125 g/ha / pest or weed control at 500 g/ha: Setaria faberi, pre-emergence, 240 h, read-out: Foxtail, Giant plant response rating
In short: as §1

[5] = 500 g ai/ha, 0 to 100 scale (0 no effect, 100 complete control)
[6] = 125 g ai/ha, 0 to 100 scale (0 no effect, 100 complete control)
[7] = 31 g ai/ha, 0 to 100 scale, 0 no effect, 100 complete control

Row | Compound | Ragweed plant response rating [1, 5] | Ryegrass, Italian plant response rating [2, 6] | Ryegrass, Italian plant response rating [2, 5] | Barnyardgrass plant response rating [3, 6] | Barnyardgrass plant response rating [3, 5] | Foxtail, Giant plant response rating [4, 6] | Foxtail, Giant plant response rating [4, 5] | pest or weed control at 125 g/ha [1, 6] [%] | pest or weed control at 500 g/ha [1, 5] [%] | pest or weed control at 125 g/ha [2, 6] [%] | pest or weed control at 500 g/ha [2, 5] [%] | pest or weed control at 125 g/ha [3, 6] [%] | pest or weed control at 500 g/ha [3, 5] [%] | pest or weed control at 125 g/ha [4, 6] [%] | pest or weed control at 500 g/ha [4, 5] [%] | Plant response rating, Ragweed [1, 7] | Plant response rating, Ragweed [1, 6] | Plant response rating, Ryegrass, Italian [2, 7] | Plant response rating, Ryegrass, Italian [2, 6] | Plant response rating, Barnyardgrass [3, 7] | also measured
1 | N#CCCOC(=O)c1c(Br)cccc1Oc1ncc(Cl)cn1 [Compound 7] | 50 | 0 | 30 | 50 | 100 | 90 | 100 | – | – | – | – | – | – | – | – | – | – | – | – | – | –
2 | C=CCOC(=O)c1c(Br)cccc1Oc1ncc(Cl)cn1 [Compound 22, 2-propen-1-yl 2-bromo-6-[(5-chloro-2-pyrimidinyl)oxy]benzoate] | – | – | – | – | – | – | – | 0 | 0 | 30 | 90 | 40 | 100 | 100 | 100 | – | – | – | – | – | –
3 | O=C(OCC(F)(F)C(F)(F)F)c1c(Br)cccc1Oc1ncc(Cl)cn1 [Compound 23, 2,2,3,3,3-pentafluoropropyl 2-bromo-6-[(5-chloro-2-pyrimidinyl)oxy]benzoate] | – | – | – | – | – | – | – | 0 | 10 | 0 | 40 | 20 | 70 | 70 | 100 | – | – | – | – | – | –
4 | O=C(OCC(F)(F)F)c1c(Br)cccc1Oc1ncc(Cl)cn1 [Compound 35] | 0 | 0 | 30 | 70 | 90 | 100 | 100 | – | – | – | – | – | – | – | – | – | – | – | – | – | Ragweed plant response rating [1, 6]: 0
5 | O=C(CCC(F)(F)C(F)(F)F)c1c(Br)cccc1Oc1ncc(Cl)cn1 [Compound 110] | – | – | – | 100 | – | – | – | – | – | – | – | – | – | – | – | 0 | 0 | 0 | 70 | 40 | Plant response rating, Foxtail, Giant [4, 7]: 80; Plant response rating, Foxtail, Giant [4, 6]: 100
6 | FC(F)(F)CCCCc1c(Cl)cccc1Oc1ncc(Cl)cn1 [Compound 137] | – | – | – | – | – | – | – | – | – | – | – | – | – | – | – | 0 | 0 | 0 | 20 | 0 | Plant response rating, Barnyardgrass [3, 6]: 90; Plant response rating, Foxtail, Giant [4, 7]: 70; Plant response rating, Foxtail, Giant [4, 6]: 100
